From patent US20220135663A1, “Method of treatment of Chronic Low Back Pain” (Pfizer Inc., priority 2019, published 2022)

Tests used:
[1] = test system: adult patients with chronic low back pain; experiment: Study 1059: adverse events and adjudicated joint safety; format: in vivo, human
Source text: For subjects who are identified with a possible or probable joint event (i.e., rapidly progressive osteoarthritis, subchondral insufficiency fractures, spontaneous osteonecrosis of the knee (SPONK), primary osteonecrosis or pathological fracture) and subjects undergoing total joint replacement for any reason, all images and other source documentation may be provided to the blinded Adjudication Committee for review and adjudication of the event. The Adjudication Committee's assessment of the event may represent the final classification of the event.
(§1) Patients were also required to have documented history of previous inadequate treatment response to at least 3 different categories of agents commonly used and generally considered effective for the treatment of chronic low back pain. Patients were required to discontinue all medications for the treatment of chronic low back pain during the primary efficacy assessment period (up to Week 16).

[2] = test system: adult patients with chronic low back pain; experiment: Study 1059, Phase 3: efficacy (LBPI, RMDQ) in chronic low back pain; format: in vivo, human; conditions: 100-300 mg daily oral
Experimental: The Low Back Pain Intensity (LBPI) measure is assessed with an 11-point numeric rating scale ranging from 0 (no pain) to 10 (worst possible pain). The LBPI score can be the daily average LBPI score.
The Roland Morris Disability Questionnaire (RMDQ) is an index of how well subjects with low back pain are able to function with regard to daily activities (Roland M, Fairbank. The Roland-Morris Questionnaire and the Oswestry Disability Questionnaire. Spine. 2000; 25 (4)3115-3124). It is a low back pain-specific assessment of physical function with scores ranging from 0 to 24 (lower scores indicate better function).
as §1
Approximately 1800 patients were planned to be randomized initially in a 2:2:2:3 ratio to 1 of 4 following treatment groups:
1. Placebo administered SC at an 8-week interval plus placebo matching tramadol PR up to Week 16. At the Week 16 visit, patients in this group were switched in a blinded fashion in a 1:1 ratio to either tanezumab 5 mg or tanezumab 10 mg administered SC at an 8 week interval plus placebo matching tramadol PR to Week 56;
2. Tanezumab 5 mg SC administered at an 8-week interval plus placebo matching tramadol PR to Week 56;
3. Tanezumab 10 mg SC administered at an 8-week interval plus placebo matching tramadol PR to Week 56;
4. Oral tramadol PR 100-300 mg daily plus placebo administered SC at an 8-week interval to Week 56.
To achieve the initial randomization and intended re-randomization at Week 16 for placebo patients, a randomization ratio 1:1:2:2:3 for placebo→tanezumab 5 mg (at Week 16), placebo→tanezumab 10 mg (at Week 16), tanezumab 5 mg, tanezumab 10 mg, and tramadol PR was used at the beginning of the trial.
Table 2 summarizes the requirements for analgesic medication usage prior to Screening and the requirements for LBPI and Patient's Global Assessment (PGA) of CLBP. The current study enrolled patients who were more refractory to standard of care treatments for CLBP and had higher LBPI scores at Baseline.

[3] = test system: subjects with chronic low back pain (CLBP); experiment: Study 1063: adverse events and adjudicated joint safety
Experimental: This second study (termed “Study 1063) was a randomized, double-blind, active-controlled, multicenter, parallel-group Phase 3 study in Japan to evaluate the safety and efficacy of tanezumab when administered by SC injection for up to 56 weeks in subjects with chronic low back pain (CLBP). […] Patients were also required to be experiencing some benefit from their current stable dose regimen of oral therapy of NSAID (celecoxib 200 mg/day [100 mg BID], loxoprofen 120 to 180 mg/day or meloxicam 5 to 15 mg/day) treatment, but still required additional pain relief at screening. […] Patients with a diagnosis of osteoarthritis of the knee or hip as defined by the American College of Rheumatology combined clinical and radiographic criteria or who had Kellgren Lawrence Grade ≥2 radiographic evidence of hip osteoarthritis or Kellgren Lawrence Grade ≤3 radiographic evidence of knee osteoarthritis were excluded.
Treatment groups were as follows: 1. Tanezumab 5 mg SC and placebo for celecoxib BID; 2. Tanezumab 10 mg SC and placebo for celecoxib BID; 3. Placebo for tanezumab SC and celecoxib BID.
This study was designed with a total (post-randomization) duration of 80 weeks and consisted of three periods: (1) a Screening period (up to a maximum of 37 days), (2) a Double-blind Treatment period (56 weeks), and (3) a Safety Follow-up (24 weeks) Period (FIG. 8). The Screening Period included a Washout Period (lasting 2-32 days) if required, and an Initial Pain Assessment Period (IPAP) (5 days prior to Randomization/Baseline; minimum 4 days).
The Safety analysis set included all patients who received at least one dose of SC study treatment. This analysis set was primary for all safety endpoints, which were analyzed according to treatment received, and was labeled as the ‘Safety population’. In this study, the ITT and Safety analysis sets were identical.

[4] = test system: subjects with chronic low back pain (CLBP); experiment: Study 1063, Phase 3 in Japan: efficacy (LBPI, RMDQ) in chronic low back pain; format: in vivo, human; conditions: 100 mg BID
Experimental: Patients received a total of seven SC injections, separated by 8 weeks (tanezumab or
Treatment groups were as follows: 1. […] Placebo for tanezumab SC and celecoxib BID.
The Intent-to-Treat (ITT) analysis set included all patients who were randomized and received at least one dose of SC study medication (either tanezumab or placebo). This analysis set was primary for all efficacy endpoints, which were analyzed according to randomization assignment, and was labeled as the ‘ITT population’.

low back pain = conditions: 500 mg BID; prior study; cited from earlier work
[5] = 100 mg BID, 56-week treatment period

## COc1cccc(C2(O)CCCCC2CN(C)C)c1 (stereo not drawn) [Tramadol PR, tramadol, reference compound]
[1]; 100-300 mg daily oral
  incidence of composite joint safety endpoint: 0.2%
  observation-time adjusted rate of composite joint safety endpoint: 1.9 events/1000 patient-years
  patients with joint safety event adjudicated to RPOA Type 1: 0.2%
  patients with joint safety event adjudicated to RPOA Type 1, number: 1 patients
[1]; tramadol PR-treated patients
  patients with adjudicated event of RPOA: 0.2%
[1]; tramadol PR-treated patients, 80-week observation period
  patients with joint safety event requiring adjudication: 0.7%
[2]
  LBPI change from Baseline to Week 2, Difference vs. plc: −0.19
  LBPI change from Baseline to Week 16, LS Mean: −2.81
  Proportion of patients with ≥50% improvement in LBPI at Week 16: (42.8) %
  RMDQ change from Baseline to Week 16, Difference vs. plc: −0.26
  RMDQ change from Baseline to Week 16, LS Mean: −5.21
  percentage of patients achieving ≥30% improvement in LBPI at week 16: 57.9%
  ≥30% improvement in LBPI at week 16, odds ratio versus placebo: 1.08
  ≥50% improvement in LBPI at Week 16, OR vs. plc: 1.25

## Cc1ccc(-c2cc(C(F)(F)F)nn2-c2ccc(S(N)(=O)=O)cc2)cc1 [celecoxib]
[3]; 100 mg BID
  frequency of adverse events of potential sympathetic dysfunction: 7.6%
  incidence of composite joint safety endpoint: 0%
  observation-time adjusted rate of composite joint safety endpoint: 0 event/1000 patient-years
  patients who met criteria for adjudication of a joint safety event, number: 1 patient
[3]; [5]
  incidence of serious adverse events: 2.2%
  overall incidence of adverse events: 67.4%
[3]; 100 mg BID, during the study
  Composite Joint Safety Endpoint, n (%): 0 n (%)
  Pathological Fracture, n (%): 0 n (%)
  Patients analyzed by the Adjudication Committee, n (%): 1 (1.1%) n (%)
  Patients with Only Normal Progression of OA, n (%): 0 n (%)
  Patients with Other Joint Outcome, n (%): 1 (1.1%) n (%)
  Primary Osteonecrosis, n (%): 0 n (%)
  RPOA type 1, n (%): 0 n (%)
  RPOA type 2, n (%): 0 n (%)
  RPOA, n (%): 0 n (%)
  Subchondral Insufficiency Fracture, n (%): 0 n (%)
[3]; 100 mg BID, treatment period
  Arthralgia, number (%) of patients: 6 (6.5) n (%)
  Back pain, number (%) of patients: 4 (4.3) n (%)
  Contusion, number (%) of patients: 2 (2.2) n (%)
  Diarrhoea, number (%) of patients: 3 (3.3) n (%)
  Discontinued from study due to Adverse Event, number (%) of patients: 0 n (%)
  Discontinued study drug due to Adverse Event and continued study, number (%) of patients: 4 (4.3) n (%)
  Discontinued study drug due to Adverse Event, number (%) of patients: 4 (4.3) n (%)
  Fall, number (%) of patients: 3 (3.3) n (%)
  Gastroenteritis, number (%) of patients: 3 (3.3) n (%)
  Headache, number (%) of patients: 2 (2.2) n (%)
  Hypertension, number (%) of patients: 3 (3.3) n (%)
  Hypoaesthesia, number (%) of patients: 3 (3.3) n (%)
  Intervertebral disc protrusion, number (%) of patients: 3 (3.3) n (%)
  Musculoskeletal pain, number (%) of patients: 3 (3.3) n (%)
  Myalgia, number (%) of patients: 1 (1.1) n (%)
  Nasopharyngitis, number (%) of patients: 6 (6.5) n (%)
  Pain in extremity, number (%) of patients: 3 (3.3) n (%)
  Pneumonia, number (%) of patients: 1 (1.1) n (%)
  Pyrexia, number (%) of patients: 4 (4.3) n (%)
  Serious Adverse Event, number (%) of patients: 2 (2.2) n (%)
  Severe Adverse Event, number (%) of patients: 1 (1.1) n (%)
  frequency of adverse events of abnormal peripheral sensation: 4.3%
  incidence of discontinuations from treatment due to an adverse event: 4.3%
[3]; 100 mg BID, treatment period, all causalities
  Adverse Event, number (%) of patients: 62 (67.4) n (%)
[3]; celecoxib-treated patients, 80-week observation period
  patients who met criteria for adjudication of joint safety outcome: 1.1%
[4]
  Proportion of Patients with ≥50% Improvement in LBPI at Week 16 (Mixed BOCF/LOCF): (32.6%)
[4]; ITT
  Change from Baseline to Week 16 in LBPI (Multiple Imputation), LS Mean: −2.28
  Change from Baseline to Week 16 in RMDQ (Multiple Imputation), LS Mean: −3.84

## COc1ccc2cc([C@H](C)C(=O)O)ccc2c1 [naproxen]
Low back pain
  LBPI endpoints relative to placebo: significant differences relative to placebo
  RMDQ endpoint relative to placebo: not the RMDQ endpoint
